Experimental data: US9533071B2, “Wound healing compositions including cyanoacrylate monomers and phenytoin” (Adhezion Biomedical, LLC, priority 2010, dated 2017)

Key:
[1] = system: surgical wounds of periodontal patients; conditions: topical; cited from earlier work
[2] = system: bacterial load of wounds; conditions: clinical studies; cited from earlier work
[3] = Incorporation (miscibility) of phenytoin into cyanoacrylate monomers; format: physicochemical
Experimental: According to the present invention, an effective amount of wound healing promoter, is incorporated into the pre-stabilized liquid monomeric cyanoacrylate adhesive compositions to form a homogeneous liquid adhesive product. […] After continuous stirring at this elevated temperature, the mixture of cyanaocrylate monomers and wound healing accelerator becomes a homogeneous solution within about 1 to 2 hours. Standard mixing equipment and techniques are suitable. The 5,5-[…], including phenytoin are readily available from major chemical distributors. […] Table 1 below summarizes the results of incorporating phenytoin into different cyanoacrylate monomer solutions at the elevated temperatures. […] At the elevated temperatures, phenytoin is soluble in both 2-octyl cyanoacrylate (OCA) and n-butyl cyanoacrylate (BCA). It is also interesting to note that phenytoin is more soluble in shorter alkyl chain cyanoacrylate (BCA) than in longer alkyl chain cyanoacrylate (OCA).

Solubility in 2-octyl cyanoacrylate (OCA) ([3]; elevated temperatures): soluble
Solubility in n-butyl cyanoacrylate (BCA) ([3]; elevated temperatures): soluble
Solubility in 2-octyl cyanoacrylate (OCA) monomer ([3]; room temperature): not soluble
Solubility in BCA compared with OCA ([3]; shorter vs longer alkyl chain cyanoacrylate): more soluble
Structure (SMILES): O=C1NC(=O)C(c2ccccc2)(c2ccccc2)N1 [phenytoin, 5,5-diphenylhydantoin]
Inflammation and pain [1]: reduced inflammation and pain
Wound healing [1]: accelerated wound healing
Bacterial load of wounds [2]: decrease the bacterial load of wounds
